According to patent US20230065953A1, “NOVEL HETEROARYL-TRIAZOLE COMPOUNDS AS PESTICIDES” (Bayer Aktiengesellschaft, priority 2019, published 2023):

Columns and labels:
Format in all cases: in vivo
[1] = test system: larvae of the banded cucumber beetle (Diabrotica balteata); assay: Diabrotica balteata spray test; conditions: 168 h, 100 g/ha (=32 μg/well), wheat seeds, after 7 days, read-out: efficacy (seedling growth)
In short: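 Efficacy in % was read 7 days after infesting with 10-20 larvae per unit. Before infestation, 1-day-germinated wheat seedlings (5 per well) were sprayed with the active ingredient, formulated in acetone and dimethylformamide plus emulsifier and diluted with water containing emulsifier.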

[2] = test system: green peach aphid (Myzus persicae); assay: Myzus persicae spray test; conditions: foliar, 120 h, Chinese cabbage leaf disks, after 5 days
In short: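 Percent mortality read 5 days after spraying, where 100% is total kill and 0% none. The spray contained compound in acetone plus dimethylformamide, diluted with 1000 ppm emulsifier water. It was applied to Brassica pekinensis leaf disks carrying mixed-instar green peach aphids.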

[3] = test system: fall armyworm larvae (Spodoptera frugiperda); assay: Spodoptera frugiperda spray test (maize leaf sections); conditions: 168 h
In short: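 Percent kill of Spodoptera frugiperda caterpillars read at day 7. Larvae placed on dried Zea mays leaf pieces previously sprayed with test preparation, made from acetone plus DMF and diluted with emulsifier-containing water (1000 ppm).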

[4] = test system: adult mosquitoes Aedes aegypti strain MONHEIM; assay: Aedes aegypti test (AEDSAE surface treatment & contact assay); conditions: 24 hours after contact, read-out: efficacy (mortality); for mortality at 4 mg/m2: surface concentration 4 mg/m^2, 30 min exposure; for mortality at 20 mg/m2: surface concentration 20 mg/m^2, 30 min exposure
In short: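 Test compound in acetone (2 mg/ml) with 2000 ppm rapeseed oil methyl ester was dried onto a glazed tile. Adult Aedes aegypti MONHEIM were exposed to the treated surface for 30 minutes. Percent mortality was scored 24 hours after contact.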

[5] = test system: adult mosquitoes Anopheles funestus strain FUMOZ-R; assay: Anopheles funestus test (ANPHFU surface treatment & contact assay); conditions: 24 hours after contact, read-out: efficacy (mortality); for mortality at 4 mg/m2: surface concentration 4 mg/m^2, 30 min exposure; for mortality at 20 mg/m2: surface concentration 20 mg/m^2, 30 min exposure
Method: Anopheles funestus Test (ANPHFU Surface Treatment & Contact Assay) • Solvent: Aceton+2000 ppm rapeseed oil methyl ester (RME)
In order to produce a sufficient, active ingredient containing solution it is necessary to solve the test compound in the solvent-mix (acetone at 2 mg/ml/RME 2000 ppm). This solution is pipetted onto a glazed tile and after evaporation of the acetone, adult mosquitoes of the species Anopheles funestus strain FUMOZ-R (Hunt et al., Med. Vet. Entomol. 2005 September; 19(3): 271-275) are placed onto the dried surface. The exposure time is 30 minutes.
Mortality in percent (%) is determined 24 hours after contact of the insects to the treated surface. 100% mortality means that all tested insects are dead, whereas 0% means that no insect died.

[6] = test system: adult flies Musca domestica strain WHO-N; assay: Musca domestica test (MUSCDO surface treatment & contact assay); conditions: 24 hours after contact, read-out: efficacy (mortality); for mortality at 4 mg/m2: surface concentration 4 mg/m^2, 30 min exposure; for mortality at 20 mg/m2: surface concentration 20 mg/m^2, 30 min exposure
In short: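 Percent kill read 24 h post-contact, after adult flies (strain WHO-N) spent 30 min on a glazed tile treated with test solution (acetone, 2 mg/ml, plus 2000 ppm rapeseed oil methyl ester) and dried.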

[7] = test system: Rhipicephalus microplus larvae (strain Parkhurst, resistant against synthetic pyrethroids); assay: Rhipicephalus (Boophilus) microplus in-vitro contact test, larval cattle tick; conditions: 5 μg/cm^2 (=500 g/ha), after 48 hours, read-out: efficacy (larvae dead or moribund)
In short: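 Efficacy is read at 48 h from negative geotactic behaviour after larvae are patted to the tube bottom, expressed as percentage dead or moribund. Larvae (20-50) sit in glass tubes whose walls carry an evaporated acetone film of compound (900 ppm corresponds to 5 μg/cm^2), kept at 27° C., 85% relative humidity.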

[8] = test system: adult cat fleas (Ctenocephalides felis); assay: Ctenocephalides felis in-vitro contact test, adult cat flea; conditions: 5 μg/cm^2 (=500 g/ha), after 48 hours
In short: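 After 48 h of room-temperature exposure in tubes whose walls carried dried compound residue (5 μg/cm^2, from 900 ppm acetone solution), adult cat fleas (5-10 per tube) were heat-challenged at 45-50° C up to 5 min. Fleas unable to climb away were counted dead or moribund, expressed as % efficacy.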

[9] = test system: adult brown dog ticks (Rhipicephalus sanguineus); assay: Rhipicephalus sanguineus in-vitro contact test with adult brown dog ticks; conditions: 5 μg/cm^2 (=500 g/ha), after 48 hours, read-out: efficacy (ticks dead or moribund)
Method: Rhipicephalus sanguineus—In-Vitro Contact Tests with Adult Brown Dog Ticks
9 mg compound is solved in 1 mL acetone and diluted with acetone to the desired concentration. 250 μL of the test solution is filled in 25 mL glass test tubes and homogeneously distributed on the inner walls by rotation and tilting on a shaking device (2 h at 30 rpm). With a compound concentration of 900 ppm, an inner surface of 44.7 cm^2 and a homogeneous distribution, a dose of 5 μg/cm^2 is achieved.
After the solvent has evaporated, each test tube is filled with 5-10 adult brown dog ticks (Rhipicephalus sanguineus), closed with a perforated lid and incubated in a lying position at room temperature and relative humidity. After 48 hours efficacy is determined. The ticks are patted on the ground of the tubes and are incubated on a heating plate at 45-50° C. for at most 5 minutes. Immotile or uncoordinated moving ticks, which are not able to escape the heat by climbing upwards, are marked as dead or moribund.
An efficacy of 100% means all ticks are dead or moribund; 0% means no ticks are dead or moribund.

[10] = test system: larvae of the southern green stink bug (Nezara viridula); assay: Nezara viridula spray test; conditions: in Hordeum vulgare, 96 h
In short: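 Mortality (%) of stink bug larvae on treated barley (Hordeum vulgare) was scored 4 days after infestation. Test solutions came from an acetone/DMF concentrate diluted with water containing 1000 ppm emulsifier and were sprayed onto plants before larvae were added.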

[11] = test system: brown planthopper (Nilaparvata lugens); assay: Nilaparvata lugens spray test; conditions: 96 h, 500 g/ha, rice plants, after 4 days
Method: Nilaparvata lugens—Spray Test • Solvent: 78.0 parts by weight of acetone • 1.5 parts by weight of dimethylformamide • Emulsifier: alkylarylpolyglycol ether
To produce a suitable preparation of active compound, 1 part by weight of active compound is mixed with the stated amount of solvents and is diluted with water, containing an emulsifier concentration of 1000 ppm, to the desired concentration. Further test concentrations are prepared by dilution with emulsifier containing water.
Rice plants (Oryza sativa) are sprayed with a preparation of the active ingredient of the desired concentration and the plants are infested with the brown planthopper (Nilaparvata lugens).
After 4 days mortality in % is determined. 100% means all planthoppers have been killed and 0% means none of the planthoppers have been killed.

C[C@H](NC(=O)c1cc(Cl)cc(C(F)(F)Cl)c1)c1ncnn1-c1ncc(C#N)s1 [I-85]
pest or weed control at 32 µg/disc, 100 g/ha [1]: 100%
mortality at 100 g/ha [2]: 100%
mortality at 100 g/ha [3]: 100%
mortality at 4 mg/m2 [4]: 80 to 100%
mortality at 20 mg/m2 [4]: 80 to 100%
mortality at 4 mg/m2 [5]: 80 to 100%
mortality at 20 mg/m2 [5]: 80 to 100%
mortality at 4 mg/m2 [6]: 90 to 100%
mortality at 20 mg/m2 [6]: 80 to 100%

C[C@H](NC(=O)c1cc(OC(F)(F)F)cc(C2CC2)c1)c1ncnn1-c1ncc(C(=O)N(C)C)s1 [I-89]
pest or weed control at 5 µg/cm2 [7]: 100%
efficacy (fleas dead or moribund) [8]: 100%
pest or weed control at 5 µg/cm2, 500 g/ha [9]: 80%
pest or weed control at 32 µg/disc, 100 g/ha [1]: 100%
mortality at 100 g/ha [2]: 100%
mortality at 500 g/ha [10]: 100%
mortality at 500 g/ha [11]: 100%
mortality at 100 g/ha [3]: 100%
mortality at 20 mg/m2 [4]: 80 to 100%
mortality at 20 mg/m2 [6]: 80 to 100%

Cc1nc([C@H](C)NC(=O)c2cc(OC(F)(F)F)cc(C3CC3)c2)n(-c2ncc(C#N)s2)n1 [I-91]
pest or weed control at 5 µg/cm2 [7]: 100%
pest or weed control at 5 µg/cm2, 500 g/ha [9]: 100%
pest or weed control at 32 µg/disc, 100 g/ha [1]: 100%
mortality at 100 g/ha [2]: 90%
mortality at 500 g/ha [10]: 100%
mortality at 500 g/ha [11]: 100%
mortality at 100 g/ha [3]: 100%
mortality at 20 mg/m2 [4]: 80 to 100%
mortality at 4 mg/m2 [6]: 90 to 100%
mortality at 20 mg/m2 [6]: 80 to 100%

C[C@H](NC(=O)c1cc(Br)cc(OC(F)(F)F)c1)c1ncnn1-c1ncc(C(=O)N(C)C)s1 [I-118]
pest or weed control at 32 µg/disc, 100 g/ha [1]: 100%
mortality at 100 g/ha [10]: 100%
mortality at 500 g/ha [10]: 100%
mortality at 100 g/ha [3]: 100%
mortality at 20 mg/m2 [4]: 80 to 100%
mortality at 4 mg/m2 [5]: 80 to 100%
mortality at 20 mg/m2 [5]: 80 to 100%
mortality at 20 mg/m2 [6]: 80 to 100%

C[C@H](NC(=O)c1cc(OC(F)F)cc(SC(F)F)c1)c1ncnn1-c1ncc(C#N)s1 [I-130]
pest or weed control at 32 µg/disc, 100 g/ha [1]: 100%
mortality at 100 g/ha [2]: 90%
mortality at 500 g/ha [10]: 100%
mortality at 100 g/ha [3]: 100%
mortality at 20 mg/m2 [4]: 80 to 100%
mortality at 20 mg/m2 [5]: 80 to 100%
mortality at 4 mg/m2 [6]: 90 to 100%
mortality at 20 mg/m2 [6]: 80 to 100%

C[C@H](NC(=O)c1cc(OC(F)(F)F)cc(C2(C#N)CC2)c1)c1ncnn1-c1ncc(C#N)s1 [I-142]
pest or weed control at 32 µg/disc, 100 g/ha [1]: 100%
mortality at 100 g/ha [2]: 90%
mortality at 500 g/ha [10]: 100%
mortality at 100 g/ha [3]: 100%
mortality at 4 mg/m2 [4]: 80 to 100%
mortality at 20 mg/m2 [4]: 80 to 100%
mortality at 20 mg/m2 [5]: 80 to 100%
mortality at 4 mg/m2 [6]: 90 to 100%
mortality at 20 mg/m2 [6]: 80 to 100%
